The test addresses T1, human leukocyte elastase (Homo sapiens, UniProt P08246).
T1 sequence (P08246 30-267): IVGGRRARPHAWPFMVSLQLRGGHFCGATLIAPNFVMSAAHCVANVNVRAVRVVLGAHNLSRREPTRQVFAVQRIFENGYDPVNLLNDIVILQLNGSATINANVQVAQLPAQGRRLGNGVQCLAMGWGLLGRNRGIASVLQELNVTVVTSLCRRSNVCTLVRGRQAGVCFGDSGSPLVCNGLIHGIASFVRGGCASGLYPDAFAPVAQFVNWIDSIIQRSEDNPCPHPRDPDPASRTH
Description: in vitro human leukocyte elastase inhibiting activity (fluorogenic substrate, method of JP-A-2-101017 with slight modification). Format: biochemical. Here is the method:
Thus, methoxysuccinyl-Ala-Ala-Pro-Val-7-amido-4-methylcoumarin was used as a substrate for human leukocyte elastase and the 50% inhibitory concentration (IC₅₀) was measured. The enzymatic reaction was carried out in 0.2 M Tris-hydrochloride buffer (containing 0.02 M CaCl₂ and 0.005% Triton X-100) at pH 7.2. Each mixture of test compound solution and the enzyme solution was incubated at 25°C for 20 minutes.

Setting [1] is: 50% inhibitory concentration, substrate methoxysuccinyl-Ala-Ala-Pro-Val-7-amido-4-methylcoumarin, 0.2 M Tris-hydrochloride buffer (0.02 M CaCl2, 0.005% Triton X-100), pH 7.2, compound and enzyme incubated at 25°C for 20 minutes, read-out: IC50.

Read-outs that look alike come from different tables or passages of the source.

For the compound `CC(C)C(=O)Nc1ccc(C(=O)Oc2cc(Cl)cc(OS(C)(=O)=O)c2)cc1` [Compound 82, 3-chloro-5-(methanesulfonyloxy)phenyl 4-(isobutanoylamino)benzoate], the IC50 under setting [1] turned out to be 18 nM.

With `O=C(Cc1cccs1)Nc1ccc(C(=O)Oc2cc(Cl)cc(Cl)c2)cc1` [Compound 37, 3,5-dichlorophenyl 4-(2-thienylacetylamino)benzoate], the half-maximal inhibitory concentration (IC50) under setting [1] worked out at 79 nM.

For `CC(C)NC(=O)Nc1ccc(C(=O)Oc2cc(Cl)cc(Cl)c2)cc1` [Compound 31, 3,5-dichlorophenyl 4-(3-isopropylureido)benzoate], the IC50 under setting [1] came to 13 nM.

`CC1(C(=O)Nc2ccc(C(=O)Oc3cc(Cl)cc(Cl)c3)cc2)CC1` [Compound 1, 3,5-dichlorophenyl 4-(1-methylcyclopropanecarbonylamino)benzoate]: the IC50 under setting [1] stood at 37 nM.

As for `CC(C)C(=O)Nc1ccc(C(=O)Oc2cc(Cl)cc(OC(=O)C3CCCCC3)c2)cc1` [Compound 79, 3-chloro-5-(cyclohexanecarbonyloxy)phenyl 4-(isobutanoylamino)benzoate], the concentration for half-maximal inhibition (IC50) under setting [1] came out at 110 nM.

As to `CC(C)C(=O)Nc1ccc(C(=O)Oc2ccccc2[N+](=O)[O-])cc1` [Compound 48, 6-nitrophenyl 4-(isobutanoylamino)benzoate], the concentration for half-maximal inhibition (IC50) under setting [1] was 16 nM.

Take `O=C(Oc1cc(Cl)cc(Cl)c1)c1ccc(NC(=O)C(Cl)(Cl)Cl)cc1` [Compound 10, 3,5-dichlorophenyl 4-(trichloroacetylamino)benzoate]: the half-inhibitory concentration (IC50) under setting [1] turned out to be 28 nM.

Take `CCS(=O)(=O)Oc1cc(Cl)cc(OC(=O)c2ccc(NC(=O)C(C)C)cc2)c1` [Compound 83, 3-chloro-5-(ethanesulfonyloxy)phenyl 4-(isobutanoylamino)benzoate]: the IC50 under setting [1] turned out to be 25 nM.

Consider `O=C(Oc1cc(Cl)cc(Cl)c1)c1ccc(NC(=O)C(F)(F)C(F)(F)F)cc1` [Compound 12, 3,5-dichlorophenyl 4-(pentafluoropropanoylamino)benzoate], for which, under setting [1], the half-inhibitory concentration (IC50) is 10 nM.

For `Cc1ccc([N+](=O)[O-])c(OC(=O)c2ccc(NC(=O)C(C)C)cc2)c1` [Compound 52, 3-methyl-6-nitrophenyl 4-(isobutanoylamino)benzoate], under setting [1], the IC50 worked out at 15 nM.

As to `CCCC(=O)Nc1ccc(C(=O)Oc2cc(Cl)cc(Cl)c2)cc1` [Compound 3, 3,5-dichlorophenyl 4-(butanoylamino)benzoate], under setting [1], the concentration for half-maximal inhibition (IC50) was 1.9 nM.

Consider `CCC(=O)Oc1cc(Cl)cc(OC(=O)c2ccc(NC(=O)C(C)C)cc2)c1` [Compound 75, 3-chloro-5-propanoyloxyphenyl 4-(isobutanoylamino)benzoate], for which, under setting [1], the IC50 was found to be 2.5 nM.

Consider `CC(C)C(=O)Nc1ccc(C(=O)Oc2c(F)cccc2F)cc1` [Compound 69, 2,6-difluorophenyl 4-(isobutanoylamino)benzoate], for which the IC50 under setting [1] is 25 nM.

`CSC(C)C(=O)Nc1ccc(C(=O)Oc2cc(Cl)cc(Cl)c2)cc1` (centres unmarked) [Compound 38, 3,5-dichlorophenyl 4-(2-methylthiopropanoylamino)benzoate]: the half-inhibitory concentration (IC50) under setting [1] was 18 nM.

As for `CC(C)(C)OC(=O)Nc1ccc(C(=O)Oc2cc(C=O)ccc2[N+](=O)[O-])cc1` [Compound 47, 3-formyl-6-nitrophenyl 4-(tert-butoxycarbonylamino)benzoate], under setting [1], the IC50 was found to be 3.8 nM.

As to `O=C(Oc1cc(Cl)cc(Cl)c1)c1ccc(NC(=O)C2CCCCC2C(=O)O)cc1` (centres unmarked) [Compound 44, 3,5-dichlorophenyl 4-(2-hydroxycarbonylcyclohexanecarbonylamino)benzoate], the IC50 under setting [1] is 18 nM.

With `CC=CC(=O)Nc1ccc(C(=O)Oc2cc(Cl)cc(Cl)c2)cc1` [Compound 13, 3,5-dichlorophenyl 4-(2-butenoylamino)benzoate], the half-inhibitory concentration (IC50) under setting [1] was determined as 9 nM.

Regarding `CC(C)CC(=O)Nc1ccc(C(=O)Oc2cc(Cl)cc(Cl)c2)cc1` [Compound 19, 3,5-dichlorophenyl 4-(3-methylbutanoylamino)benzoate], the concentration for half-maximal inhibition (IC50) under setting [1] is 96 nM.

Consider `CC(C)C(=O)Nc1ccc(C(=O)Oc2cc(Cl)cc(OCc3ccccc3)c2)cc1` [Compound 88, 3-benzyloxy-5-chlorophenyl 4-(isobutanoylamino)benzoate], for which the 50% inhibitory concentration (IC50) under setting [1] turned out to be 48 nM.

Turning to `CC(=O)OC(=O)Nc1ccc(C(=O)Oc2cc(Cl)cc(Cl)c2)cc1` [Compound 36, 3,5-dichlorophenyl 4-(acetoxycarbonylamino)benzoate], the half-inhibitory concentration (IC50) under setting [1] amounted to 31 nM.

Take `CC(C)C(=O)Nc1ccc(C(=O)Oc2cc(Cl)cc(Cl)c2Cl)cc1` [Compound 65, 2,3,5-trichlorophenyl 4-(isobutanoylamino)benzoate]: under setting [1], the IC50 was found to be 4.5 nM.

Regarding `CC(C)C(=O)Nc1ccc(C(=O)Oc2cc(O)cc(Cl)c2)cc1` [Compound 73, 3-chloro-5-hydroxyphenyl 4-(isobutanoylamino)benzoate], the IC50 under setting [1] is 110 nM.

With `CN(C)C(=O)Nc1ccc(C(=O)Oc2cc(Cl)cc(Cl)c2)cc1` [Compound 32, 3,5-dichlorophenyl 4-(3,3-dimethylureido)benzoate], the half-inhibitory concentration (IC50) under setting [1] is 5.9 nM.

In the case of `CC(C)C(=O)Nc1ccc(C(=O)Oc2cc(F)cc(F)c2)cc1` [Compound 70, 3,5-difluorophenyl 4-(isobutanoylamino)benzoate], the IC50 under setting [1] is 26 nM.

As to `O=C(Oc1cc(Cl)cc(Cl)c1)c1ccc(NC(=O)C2CCCCC2)cc1` [Compound 18, 3,5-dichlorophenyl 4-(cyclohexanecarbonylamino)benzoate], the IC50 under setting [1] amounted to 10 nM.

Consider `CC(C)C(=O)Nc1ccc(C(=O)Oc2cc(Cl)cc(OC(=O)C=Cc3ccccc3)c2)cc1` [Compound 80, 3-cinnamoyloxy-5-chlorophenyl 4-(isobutanoylamino)benzoate], for which, under setting [1], the half-maximal inhibitory concentration (IC50) stood at 24 nM.

Turning to `O=C(Oc1cc(Cl)cc(Cl)c1)c1ccc(N2C(=O)CCC2=O)cc1` [Compound 23, 3,5-dichlorophenyl 4-(succinimidyl)benzoate], under setting [1], the concentration for half-maximal inhibition (IC50) was found to be 140 nM.

Take `CC(C)(CC(=O)Nc1ccc(C(=O)Oc2cc(Cl)cc(Cl)c2)cc1)C(=O)O` [Compound 41, 3,5-dichlorophenyl 4-(3,3-dimethylsuccinylamino)benzoate]: under setting [1], the half-inhibitory concentration (IC50) worked out at 47 nM.

As for `CC(C)C(=O)Nc1ccc(C(=O)Oc2cc([N+](=O)[O-])ccc2[N+](=O)[O-])cc1` [Compound 50, 2,5-dinitrophenyl 4-(isobutanoylamino)benzoate], the IC50 worked out at 4.7 nM.

`O=C(C=Cc1ccccc1)Nc1ccc(C(=O)Oc2cc(Cl)cc(Cl)c2)cc1` [Compound 21, 3,5-dichlorophenyl 4-(cinnamoylamino)benzoate]: under setting [1], the half-maximal inhibitory concentration (IC50) is 140 nM.

With `O=C(Cc1ccccc1)Nc1ccc(C(=O)Oc2cc(Cl)cc(Cl)c2)cc1` [Compound 9, 3,5-dichlorophenyl 4-(phenylacetylamino)benzoate], under setting [1], the IC50 is 5.3 nM.

For the compound `O=C(O)CCCC(=O)Nc1ccc(C(=O)Oc2cc(Cl)cc(Cl)c2)cc1` [Compound 43, 3,5-dichlorophenyl 4-(glutarylamino)benzoate], the 50% inhibitory concentration (IC50) under setting [1] amounted to 7.6 nM.

For the compound `CC(C)C(=O)Nc1ccc(C(=O)Oc2cccc(OC(F)(F)F)c2)cc1` [Compound 89, 3-trifluoromethoxyphenyl 4-(isobutanoylamino)benzoate], the half-maximal inhibitory concentration (IC50) under setting [1] came to 400 nM.

Regarding `COC(=O)c1ccc([N+](=O)[O-])c(OC(=O)c2ccc(NC(=O)C(C)C)cc2)c1` [Compound 55, 3-methoxycarbonyl-6-nitrophenyl 4-(isobutanoylamino)benzoate], the half-maximal inhibitory concentration (IC50) under setting [1] is 3.6 nM.

For `CCNC(=O)Nc1ccc(C(=O)Oc2cc(Cl)cc(Cl)c2)cc1` [Compound 27, 3,5-dichlorophenyl 4-(3-ethylureido)benzoate], under setting [1], the IC50 worked out at 21 nM.

Take `O=C(Oc1cc(Cl)cc(Cl)c1)c1ccc(NC(=O)C(F)(F)F)cc1` [Compound 11, 3,5-dichlorophenyl 4-(trifluoroacetylamino)benzoate]: the IC50 under setting [1] is 67 nM.

For the compound `CNC(=O)Nc1ccc(C(=O)Oc2cc(Cl)cc(Cl)c2)cc1` [Compound 26, 3,5-dichlorophenyl 4-(3-methylureido)benzoate], under setting [1], the concentration for half-maximal inhibition (IC50) was found to be 47 nM.

With `C=C(C)C(=O)Nc1ccc(C(=O)Oc2cc(Cl)cc(Cl)c2)cc1` [Compound 14, 3,5-dichlorophenyl 4-(2-methylpropenoylamino)benzoate], the IC50 under setting [1] came to 3.5 nM.

With `CC(C)(C(=O)O)C(=O)Nc1ccc(C(=O)Oc2cc(Cl)cc(Cl)c2)cc1` [Compound 40, 3,5-dichlorophenyl 4-(2,2-dimethylmalonylamino)benzoate], the half-inhibitory concentration (IC50) under setting [1] amounted to 3.4 nM.

With `CC(C)C(=O)Nc1ccc(C(=O)Oc2ccccc2C#N)cc1` [Compound 61, 2-cyanophenyl 4-(isobutanoylamino)benzoate], the concentration for half-maximal inhibition (IC50) under setting [1] is 9.3 nM.

For `CC(C)C(=O)Nc1ccc(C(=O)Oc2cccc(O)c2[N+](=O)[O-])cc1` [Compound 49, 5-hydroxy-6-nitrophenyl 4-(isobutanoylamino)benzoate], the IC50 under setting [1] stood at 180 nM.

Turning to `COc1cc(Cl)cc(OC(=O)c2ccc(NC(=O)C(C)C)cc2)c1` [Compound 90, 3-chloro-5-methoxyphenyl 4-(isobutanoylamino)benzoate], the concentration for half-maximal inhibition (IC50) under setting [1] came out at 11 nM.

On to `O=C(Oc1cc(Cl)cc(Cl)c1)c1ccc(NC(=O)C2CC2)cc1` [Compound 15, 3,5-dichlorophenyl 4-(cyclopropanecarbonylamino)benzoate], for which, under setting [1], the IC50 amounted to 7.7 nM.

For `COc1ccc(COC(=O)c2ccc([N+](=O)[O-])c(OC(=O)c3ccc(NC(=O)C(C)C)cc3)c2)cc1` [Compound 56], under setting [1], the 50% inhibitory concentration (IC50) came out at 8.4 nM.
